Consider one compound from patent US8138214B2, “Pharmaceutical composition” (Shanghai Allist Pharmaceutical, Inc., priority 2007, dated 2012).

For data set [1] the following is noted: dog, in vivo, po, 27 mg/kg. The method, then:
(I) Beagle dogs are selected as experimental animals, six dogs per group. 2-butyl-4-chloro-1-[2′-(1H-tetrazol-5-yl) 1,1′-biphenyl-methyl]imidazole-5-carboxylic acid, 1-[(isopropoxy)carbonyloxy]methyl ester suspended in physiologic saline is administered in single dose of drug by gavage in dosage level of 3.0 mg/kg, 9.0 mg/kg, and 27 mg/kg. Blood samples were drawn for each dosage group at set time point. […] Determine the level of the active metabolite in plasma, calculate EXP3174's pharmacokinetic parameters according to the concentration-time curve, and investigate the correlation between dosage and main pharmacokinetic parameters Cmax and AUC0-t.

Data set [2] has as its system spontaneously hypertensive rat (SHR). The data set can be described thus: Blood pressure in spontaneously hypertensive rat after gavage. The class given is in vivo. As to conditions: for blood pressure decrease: SHR, dispersed in physiologic saline.

For `CCCCc1nc(Cl)c(C(=O)OCOC(=O)OC(C)C)n1Cc1ccc(-c2ccccc2-c2nnn[nH]2)cc1` [Compound I, 2-butyl-4-chloro-1-[2′-(1H-tetrazol-5-yl)1,1′-biphenyl-methyl]imidazole-5-carboxylic acid, 1-[(isopropoxy)carbonyloxy]methyl ester], in data set [1], the “correlation between dosage and Cmax and AUC0-t of EXP3174” value is “proportional to the dosage”. The blood pressure decrease in data set [2] (15 mg/kg by gavage) is given as 10 mm of mercury column; in data set [2] (30 mg/kg by gavage), 20 mm of mercury column. Moreover, the antihypertensive effect result in data set [2] (rats, oral dosage no less than 15 mg/kg) was “significant antihypertensive effect”.
